One assay concerns the target Tyrosine-protein kinase JAK1 (Homo sapiens, UniProt P23458). Put plainly: JAK1 Assay: As used herein, a selective JAK1 inhibitor is an inhibitor of JAK1 which is selective for JAK1 over JAK2, JAK3 and TYK2. In some embodiments, the compounds or salts are about 10-fold more selective for JAK1 over JAK2. In some embodiments, the compounds or salts are about 10-fold, about 15-fold, or about 20-fold more selective for JAK1 over JAK2 as calculated by measuring IC50 at 1 mM ….
Sequence of Tyrosine-protein kinase JAK1 (P23458 whole entry): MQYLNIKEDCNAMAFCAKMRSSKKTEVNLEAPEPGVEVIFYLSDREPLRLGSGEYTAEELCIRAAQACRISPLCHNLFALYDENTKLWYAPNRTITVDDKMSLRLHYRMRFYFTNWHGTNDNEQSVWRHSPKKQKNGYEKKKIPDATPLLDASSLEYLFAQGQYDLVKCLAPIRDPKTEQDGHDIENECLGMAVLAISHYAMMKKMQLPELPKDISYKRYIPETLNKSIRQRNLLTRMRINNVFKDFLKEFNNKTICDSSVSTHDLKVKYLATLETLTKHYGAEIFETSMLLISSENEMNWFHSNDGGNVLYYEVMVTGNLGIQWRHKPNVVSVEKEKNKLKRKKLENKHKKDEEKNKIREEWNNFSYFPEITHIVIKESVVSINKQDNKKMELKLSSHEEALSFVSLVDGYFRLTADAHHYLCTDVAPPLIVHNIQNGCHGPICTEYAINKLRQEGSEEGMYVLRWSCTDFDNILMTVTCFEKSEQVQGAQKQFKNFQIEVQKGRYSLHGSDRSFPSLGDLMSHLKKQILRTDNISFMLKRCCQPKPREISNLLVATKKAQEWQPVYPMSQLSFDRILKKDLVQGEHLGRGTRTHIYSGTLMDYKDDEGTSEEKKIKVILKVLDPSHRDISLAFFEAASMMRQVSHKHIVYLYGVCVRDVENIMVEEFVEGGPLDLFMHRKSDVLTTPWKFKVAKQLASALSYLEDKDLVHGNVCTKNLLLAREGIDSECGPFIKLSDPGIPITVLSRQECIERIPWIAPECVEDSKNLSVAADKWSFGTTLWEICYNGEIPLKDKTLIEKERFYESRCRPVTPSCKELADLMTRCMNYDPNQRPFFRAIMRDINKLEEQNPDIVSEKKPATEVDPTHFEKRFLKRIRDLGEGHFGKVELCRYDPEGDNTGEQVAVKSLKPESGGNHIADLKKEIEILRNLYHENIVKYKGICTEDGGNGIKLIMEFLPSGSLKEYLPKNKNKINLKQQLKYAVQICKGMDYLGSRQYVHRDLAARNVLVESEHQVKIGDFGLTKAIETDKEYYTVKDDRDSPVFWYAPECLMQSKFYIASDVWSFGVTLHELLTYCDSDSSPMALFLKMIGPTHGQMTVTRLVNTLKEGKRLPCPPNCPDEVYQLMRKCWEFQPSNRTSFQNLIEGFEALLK
For orientation: IC50 means the point on the concentration scale where inhibition reaches its midpoint. For the molecule `N#CCC1(n2cc(-c3ncnc4[nH]ccc34)cn2)CN(C2CCN(C(=O)Nc3ccc(F)cc3C(F)(F)F)CC2)C1`, the IC50 is < 10 nM.

For `N#CCC1(n2cc(-c3ncnc4[nH]ccc34)cn2)CN(C2CCN(C(=O)c3ccnc(C(F)(F)F)n3)CC2)C1`, the IC50 was < 10 nM.

`N#CC[C@]1(n2cc(-c3ncnc4[nH]ccc34)cn2)C[C@H](N2CCC(Oc3cc(CN4CC(O)C4)cc(C(F)(F)F)n3)CC2)C1`: the IC50 is < 10 nM.

As for `N#CCC(C1CCN(c2nc3cccnc3o2)C1)n1cc(-c2ncnc3[nH]ccc23)cn1` (stereo unspecified), the IC50 was < 10 nM.

Take `N#CC[C@]1(n2cc(-c3ncnc4[nH]ccc34)cn2)C[C@H](N2CCN(C(=O)c3ccnc(C(F)(F)F)n3)CC2)C1`: the 50% inhibitory concentration (IC50) was < 10 nM.

`CCNCc1cc(O[C@H]2CC[C@@H](N3CC(CC#N)(n4cc(-c5ncnc6[nH]ccc56)cn4)C3)CC2)nc(C(F)(F)F)c1`: the IC50 was < 10 nM.

Regarding `C[C@H](O)CNCc1cc(OC2CCN([C@H]3C[C@](CC#N)(n4cc(-c5ncnc6[nH]ccc56)cn4)C3)CC2)nc(C(F)(F)F)c1`, the IC50 is < 10 nM.

Turning to `N#CCC(CN1CCN(C(=O)c2ccc(C#N)cc2F)CC1)n1ccc(-c2ncnc3[nH]ccc23)c1` (stereo unspecified), the IC50 was < 10 nM.

Take `N#CCC1(n2cc(-c3ncnc4[nH]ccc34)cn2)CN([C@H]2CC[C@@H](Oc3cc(CCO)nc(C(F)(F)F)n3)CC2)C1`: the IC50 was < 10 nM.

Turning to `N#CC[C@]1(n2cc(-c3ncnc4[nH]ccc34)cn2)C[C@H](N2CCC(Oc3cc(CCO)cc(C(F)(F)F)n3)CC2)C1`, the IC50 was < 10 nM.

For `CC(C)(O)c1cc(O[C@H]2CC[C@@H](N3CC(CC#N)(n4cc(-c5ncnc6[nH]ccc56)cn4)C3)CC2)nc(C(F)(F)F)c1`, the IC50 was < 10 nM.

Consider `C[C@@H](CO)NCc1cc(OC2CCN([C@H]3C[C@](CC#N)(n4cc(-c5ncnc6[nH]ccc56)cn4)C3)CC2)nc(C(F)(F)F)c1`, for which the IC50 is < 10 nM.

As for `C[C@@H](O)c1nc2cnc3ccsc3c2n1[C@H]1CC[C@H](CC#N)OC1`, the IC50 was < 100 nM.

Regarding `C[C@@H](O)CNCc1cc(OC2CCN([C@H]3C[C@](CC#N)(n4cc(-c5ncnc6[nH]ccc56)cn4)C3)CC2)nc(C(F)(F)F)c1`, the IC50 is < 10 nM.

On to `C[C@H](NC(=O)c1cc(F)c(N2CC(CC#N)(n3cc(-c4ncnc5[nH]ccc45)cn3)C2)cc1F)C(F)(F)F`, for which the IC50 is < 10 nM.

With `N#CC[C@]1(n2cc(-c3ncnc4[nH]ccc34)cn2)C[C@H](N2CCC(Oc3cc(CN4CCC[C@H]4CO)cc(C(F)(F)F)n3)CC2)C1`, the IC50 was < 10 nM.

Turning to `N#CCC1(n2cc(-c3ncnc4[nH]ccc34)cn2)CN([C@H]2CC[C@@H](Oc3cc(CN4CC[C@@H](O)C4)cc(C(F)(F)F)n3)CC2)C1`, the IC50 was < 10 nM.

For `N#CCC1(n2cc(-c3ncnc4[nH]ccc34)cn2)CN([C@H]2CC[C@@H](Oc3cc(CN4CC[C@H](O)C4)cc(C(F)(F)F)n3)CC2)C1` (single isomer, unassigned), the IC50 is < 10 nM.

For `N#CCC(C1CCN(c2cccc(Cl)n2)C1)n1cc(-c2ncnc3[nH]ccc23)cn1` (single isomer, unassigned), the IC50 was < 10 nM.

As for `N#CCC1(n2cc(-c3ncnc4[nH]ccc34)cn2)CN(C2CCN(C(=O)c3ccnc(C(F)(F)F)c3F)CC2)C1` [ITACITINIB], the IC50 is < 10 nM.

For another assay, the target named is T1, Phosphatidylinositol 4,5-bisphosphate 3-kinase catalytic subunit delta isoform (Homo sapiens, UniProt O00329).
T1 sequence (O00329 whole entry): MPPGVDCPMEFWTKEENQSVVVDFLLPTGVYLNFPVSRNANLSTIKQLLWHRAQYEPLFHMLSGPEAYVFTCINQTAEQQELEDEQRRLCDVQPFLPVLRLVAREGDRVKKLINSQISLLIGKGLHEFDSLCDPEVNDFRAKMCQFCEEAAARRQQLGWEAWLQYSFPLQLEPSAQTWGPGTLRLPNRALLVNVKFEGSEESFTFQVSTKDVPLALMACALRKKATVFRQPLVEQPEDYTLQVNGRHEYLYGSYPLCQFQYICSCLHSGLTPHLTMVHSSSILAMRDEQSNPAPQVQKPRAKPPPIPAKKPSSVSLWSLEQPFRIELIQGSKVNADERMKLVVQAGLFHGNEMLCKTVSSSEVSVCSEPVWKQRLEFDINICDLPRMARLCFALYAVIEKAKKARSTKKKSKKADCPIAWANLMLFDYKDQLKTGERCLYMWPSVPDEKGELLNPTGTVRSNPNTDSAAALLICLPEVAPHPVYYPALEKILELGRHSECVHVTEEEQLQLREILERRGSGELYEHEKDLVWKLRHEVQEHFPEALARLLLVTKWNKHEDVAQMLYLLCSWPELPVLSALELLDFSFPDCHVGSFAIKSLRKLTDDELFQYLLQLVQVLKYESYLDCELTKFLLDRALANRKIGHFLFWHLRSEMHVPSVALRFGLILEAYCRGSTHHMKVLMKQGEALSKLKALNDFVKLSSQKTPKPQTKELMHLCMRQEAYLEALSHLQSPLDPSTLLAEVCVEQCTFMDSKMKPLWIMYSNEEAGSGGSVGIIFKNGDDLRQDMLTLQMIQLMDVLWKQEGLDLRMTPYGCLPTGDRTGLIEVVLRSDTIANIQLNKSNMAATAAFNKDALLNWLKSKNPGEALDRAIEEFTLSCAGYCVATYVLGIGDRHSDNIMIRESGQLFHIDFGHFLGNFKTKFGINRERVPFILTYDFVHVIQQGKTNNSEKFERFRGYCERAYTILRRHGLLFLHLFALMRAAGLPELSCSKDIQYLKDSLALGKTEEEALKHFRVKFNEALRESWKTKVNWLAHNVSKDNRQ
Description: PI3K Delta Assay: In some embodiments, the PI3Kδ inhibitor is selective. By ¿selective¿ is meant that the compound binds to or inhibits a kinase with greater affinity or potency, respectively, compared to at least one other kinase. In some embodiments, the PI3Kδ inhibitors are selective inhibitors of PI3Kδ (e.g., over PI3Kα, PI3Kβ and PI3Kγ). In some embodiments, selectivity can be at least about 2-fold, 5-fold, 10-fold, at least about 20-fold, at least about 50-fold, at least about 100-fold, at least about 200-fold, at least about 500-fold or at least about 1000-fold. Selectivity can be measured by methods routine in the art. In some embodiments, selectivity can be tested at the Km ATP concentration of each enzyme. In some embodiments, the selectivity of compounds described herein can be determined by cellular assays associated with particular PI3K kinase activity.
For the molecule `CCOc1c(C(C)n2nc(C)c3c(N)ncnc32)cc(C)c(C#N)c1-c1ccc(C(=O)N(C)C)nc1` (stereo unspecified), the IC50 was < 50 nM.
